The record followed here is patent publication US20100035756A1, “TRIAZOLOPHYRIDINE DERIVATIVES AS HERBICIDES” (SYNGENTA LIMITED, priority 2006, published 2010).

What all share (format): in vivo
For experiment [1], the system named is Monocotyledonous and dicotyledonous test plants. As to the kind of experiment: Herbicidal action prior to emergence of the plants (pre-emergence action), Example B1. The conditions noted are these: preemergence application, 250 g/ha, evaluated after 4 weeks, 100%=total damage, 0%=no damage. In outline:
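Monocot and dicot species were sown in standard soil and sprayed pre-emergence, right after sowing, at 250 g/ha as an aqueous suspension or emulsion. Plants were grown in a greenhouse for 4 weeks. Damage was scored from 0% (none) to 100% (total).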

The test system of experiment [2] is Nasturtium officinale. As to the kind of experiment: Microscreen (pre-emergence), Example B3. To be noted: preemergent application, 250 g/ha, evaluated 8 days later, 100%=total damage.
Experiment [3] concerns Amaranthus retroflexus. As to the kind of experiment: Microscreen (pre-emergence), Example B3. To be noted: preemergent application, 250 g/ha, evaluated 8 days later, 100%=total damage.
Experiment [4] concerns Setaria italica. As to the kind of experiment: Microscreen (pre-emergence), Example B3. The conditions noted are these: preemergent application, 250 g/ha, evaluated 8 days later, 100%=total damage.
Experiment [5] concerns Stellaria media. As to the kind of experiment: Microscreen (pre-emergence), Example B3. To be noted: preemergent application, 250 g/ha, evaluated 8 days later, 100%=total damage.
Experiment [6] concerns Digitaria sanguinalis. As to the kind of experiment: Microscreen (pre-emergence), Example B3. The conditions noted are these: preemergent application, 250 g/ha, evaluated 8 days later, 100%=total damage.
Experiment [7] concerns Solanum nigrum. The experiment is described as follows: Microscreen (pre-emergence), Example B3. To be noted: preemergent application, 250 g/ha, evaluated 8 days later, 100%=total damage.
Experiment [8] has as its system Agrostis tenuis. The experiment is described as follows: Microscreen (pre-emergence), Example B3. The conditions noted are these: preemergent application, 250 g/ha, evaluated 8 days later, 100%=total damage.
The subject of experiment [9] is Monocotyledonous and dicotyledonous test plants. As to the kind of experiment: Herbicidal action after emergence of the plants (post-emergence herbicidal action), Example B2. The conditions noted are these: postemergent application, 125 g/ha, 2- to 3-leaf stage, evaluated after 2-3 weeks, 100%=total damage. On the procedure: Monocotyledonous and dicotyledonous test plants are sown in seed trays in standard soil. When the test plants are at the 2- to 3-leaf stage, the test compounds are applied by spraying in the form of an aqueous suspension (prepared from a wettable powder (Example F3, b) according to WO 97/34485) or in the form of an emulsion (prepared from an emulsifiable concentrate (Example F1, c) according to WO 97/34485) in a concentration of 125 g/ha. The test plants are then grown on in a greenhouse under optimum conditions. After a 2- to 3-week test period, the test is evaluated (100%=total damage to plant; 0%=no damage to plant).

`Cc1nnc2c(C(=O)C3=C(O)C4(CCC3=O)CC4)ccc(C(F)(F)F)n12` [41.2]: in experiment [1], the “herbicidal damage, ABUTH” value was 80%; the “herbicidal damage, AMARE” value is on record as 100%; the “herbicidal damage, BRAPL” value came to 80%; the “herbicidal damage, DIGSA” value came out at 100%. Besides, in [1], the “herbicidal damage, ECHCG” value was 100%; the “herbicidal damage, SETFA” value was 80%; the “herbicidal damage, STEME” value is 70%; the “herbicidal damage, VERPE” value came to 90%. The “herbicidal damage, Nasturtium” value in experiment [2] came out at 100%. Also, the “herbicidal damage, Amaranthus” value in experiment [3] turned out to be 100%. In addition, in [4], the “herbicidal damage, Setaria” value came to 80%. Further, in experiment [5], the “herbicidal damage, Stellaria” value turned out to be 90%. The “herbicidal damage, Digitaria” value in [6] worked out at 100%. The “herbicidal damage, Solanum” value in experiment [7] is given as 100%. Besides, the “herbicidal damage, Agrostis” value in experiment [8] was found to be 100%.
Consider `CCCC1CCC(=O)C(C(=O)c2ccc(C(F)(F)F)n3c(C)nnc23)=C1O` (stereo not shown) [41.6], for which, in [1], the “herbicidal damage, ABUTH” value turned out to be 70%; the “herbicidal damage, AMARE” value is reported as 100%; the “herbicidal damage, BRAPL” value was found to be 60%; the “herbicidal damage, DIGSA” value is given as 90%. In [1], the “herbicidal damage, ECHCG” value came to 70%; the “herbicidal damage, SETFA” value worked out at 70%; the “herbicidal damage, STEME” value turned out to be 50%; the “herbicidal damage, VERPE” value turned out to be 50%. Besides, the “herbicidal damage, Nasturtium” value in experiment [2] was determined as 100%. The “herbicidal damage, Amaranthus” value in [3] was determined as 100%. Besides, the “herbicidal damage, Setaria” value in [4] is 0%. Besides, the “herbicidal damage, Stellaria” value in [5] is 80%. Further, in experiment [6], the “herbicidal damage, Digitaria” value was 90%. Also, the “herbicidal damage, Solanum” value in experiment [7] is on record as 90%. Moreover, in experiment [9], the “herbicidal damage, ABUTH” value is 80%; the “herbicidal damage, AMARE” value worked out at 80%; the “herbicidal damage, CHEAL” value came to 80%; the “herbicidal damage, DIGSA” value was determined as 80%. Also, in experiment [9], the “herbicidal damage, SETFA” value is reported as 70%; the “herbicidal damage, SINAR” value came out at 80%; the “herbicidal damage, VERPE” value turned out to be 80%; the “herbicidal damage, XANST” value is given as 80%. The “herbicidal damage, Agrostis” value in [8] came to 100%.
In the case of `Cc1nnc2c(C(=O)C3C(=O)C4CCC(C4)C3=O)ccc(C(F)(F)F)n12` (stereo not shown) [Compound 1.4, 3-(3-Methyl-5-trifluoromethyl-[1,2,4]triazolo[4,3-a]pyridine-8-carbonyl)-bicyclo[3.2.1]octane-2,4-dione], in [1], the “herbicidal damage, ABUTH” value is listed as 100%; the “herbicidal damage, AMARE” value is 100%; the “herbicidal damage, BRAPL” value is 70%; the “herbicidal damage, DIGSA” value amounted to 100%. Moreover, in experiment [1], the “herbicidal damage, ECHCG” value is 90%; the “herbicidal damage, SETFA” value turned out to be 90%; the “herbicidal damage, STEME” value is 100%; the “herbicidal damage, VERPE” value worked out at 100%. Also, in experiment [2], the “herbicidal damage, Nasturtium” value stood at 90%. In experiment [3], the “herbicidal damage, Amaranthus” value was determined as 90%. The “herbicidal damage, Setaria” value in [4] was found to be 70%. Moreover, the “herbicidal damage, Stellaria” value in experiment [5] amounted to 80%. Further, in experiment [6], the “herbicidal damage, Digitaria” value was 90%. Besides, the “herbicidal damage, Solanum” value in [7] is given as 90%. Moreover, in experiment [9], the “herbicidal damage, ABUTH” value is reported as 70%; the “herbicidal damage, AMARE” value is recorded as 70%; the “herbicidal damage, CHEAL” value is reported as 90%; the “herbicidal damage, DIGSA” value amounted to 80%. Moreover, in [9], the “herbicidal damage, SETFA” value is recorded as 90%; the “herbicidal damage, SINAR” value came to 80%; the “herbicidal damage, VERPE” value was found to be 80%; the “herbicidal damage, XANST” value was 70%. In addition, the “herbicidal damage, Agrostis” value in [8] amounted to 50%.
In the case of `Cc1nnc2c(C(=O)C3=C(O)CC(C)CC3=O)ccc(C(F)(F)F)n12` (stereo not shown) [Compound 4.3], in [1], the “herbicidal damage, ABUTH” value is listed as 70%; the “herbicidal damage, AMARE” value was 100%; the “herbicidal damage, BRAPL” value stood at 100%; the “herbicidal damage, DIGSA” value was 100%. Further, in experiment [1], the “herbicidal damage, ECHCG” value worked out at 100%; the “herbicidal damage, SETFA” value was found to be 40%; the “herbicidal damage, STEME” value is 80%; the “herbicidal damage, VERPE” value turned out to be 100%. The “herbicidal damage, Nasturtium” value in [2] is given as 100%. Also, the “herbicidal damage, Amaranthus” value in experiment [3] is given as 100%. In experiment [4], the “herbicidal damage, Setaria” value amounted to 60%. The “herbicidal damage, Stellaria” value in experiment [5] turned out to be 80%. Moreover, the “herbicidal damage, Digitaria” value in experiment [6] is 100%. For the same compound, the “herbicidal damage, Solanum” value in experiment [7] is reported as 100%. Also, the “herbicidal damage, Agrostis” value in experiment [8] turned out to be 100%.
Consider `COCc1nnc2c(C(=O)C3=C(O)C(C)(C)C(=O)C(C)(C)C3=O)ccc(C(F)(F)F)n12` [Compound 5.5], for which, in experiment [1], the “herbicidal damage, AMARE” value came out at 60%; the “herbicidal damage, BRAPL” value was 20%; the “herbicidal damage, DIGSA” value stood at 10%; the “herbicidal damage, ECHCG” value turned out to be 60%. In experiment [1], the “herbicidal damage, SETFA” value is 20%; the “herbicidal damage, STEME” value is recorded as 70%; the “herbicidal damage, VERPE” value was determined as 90%. In experiment [9], the “herbicidal damage, ABUTH” value turned out to be 80%; the “herbicidal damage, AMARE” value was 90%; the “herbicidal damage, CHEAL” value worked out at 80%; the “herbicidal damage, DIGSA” value came out at 10%. In addition, in [9], the “herbicidal damage, SETFA” value came to 50%; the “herbicidal damage, SINAR” value was 70%; the “herbicidal damage, VERPE” value was found to be 80%; the “herbicidal damage, XANST” value is recorded as 70%.
For `CC1(C)C(=O)C(C(=O)c2ccc(C(F)(F)F)n3c(-c4ccc(Cl)cc4)nnc23)=C(O)C(C)(C)C1=O` [Compound 5.10], in experiment [1], the “herbicidal damage, ABUTH” value came to 100%; the “herbicidal damage, AMARE” value worked out at 100%; the “herbicidal damage, BRAPL” value was 20%; the “herbicidal damage, DIGSA” value worked out at 40%. In addition, in experiment [1], the “herbicidal damage, ECHCG” value is recorded as 20%; the “herbicidal damage, SETFA” value amounted to 0%; the “herbicidal damage, STEME” value was 30%. Moreover, in experiment [9], the “herbicidal damage, ABUTH” value turned out to be 80%; the “herbicidal damage, AMARE” value turned out to be 80%; the “herbicidal damage, CHEAL” value came to 70%; the “herbicidal damage, DIGSA” value was 20%. Moreover, in experiment [9], the “herbicidal damage, SETFA” value is 30%; the “herbicidal damage, SINAR” value is on record as 80%; the “herbicidal damage, VERPE” value is 100%; the “herbicidal damage, XANST” value is given as 80%.
On to `Cc1nnc2c(C(=O)c3cnn(C)c3O)ccc(C(F)(F)F)n12` [Compound 6.3], for which, in experiment [1], the “herbicidal damage, ABUTH” value was determined as 10%; the “herbicidal damage, AMARE” value was determined as 70%; the “herbicidal damage, DIGSA” value was 30%; the “herbicidal damage, ECHCG” value is on record as 30%. Besides, in experiment [1], the “herbicidal damage, SETFA” value amounted to 0%; the “herbicidal damage, STEME” value is 40%; the “herbicidal damage, VERPE” value worked out at 80%. In addition, in experiment [9], the “herbicidal damage, ABUTH” value was found to be 60%; the “herbicidal damage, AMARE” value stood at 90%; the “herbicidal damage, CHEAL” value is given as 70%; the “herbicidal damage, DIGSA” value amounted to 80%. Moreover, in experiment [9], the “herbicidal damage, SETFA” value came out at 60%; the “herbicidal damage, SINAR” value was found to be 80%; the “herbicidal damage, VERPE” value turned out to be 80%; the “herbicidal damage, XANST” value came to 80%.
